Earlier results, collected in patent publication US12697342B2, “Non-surgical prevention of boar taint and aggressive behavior” (priority 2022, dated 2026).

Tested on: Sertoli cells
Settings: young male pigs

Structure (SMILES) | duration of Sertoli cell proliferation and testis size
C[C@]12CC[C@@H]3c4ccc(O)cc4C[C@@H](CCCCCCCCC[S+]([O-])CCCC(F)(F)C(F)(F)F)[C@H]3[C@@H]1CC[C@@H]2O (some centres unmarked) [ICI 182,780] | highly significant increase
N#Cc1ccc(C(c2ccc(C#N)cc2)n2cncn2)cc1 [Letrozole] | highly significant increase
